Experimental data from ChEMBL document CHEMBL1201862, “PubChem BioAssay data set” (2004).
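96-well plates; 48 h exposure; 5 concentrations. Endpoints by linear interpolation between flanking doses. Not reached: highest tested concentration assigned. Abbreviation: GI50, concentration required for 50% inhibition of growth.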 Activity calls are given as the source filed them. Cut-off read from the data, not from the text of the source: active = GI50 up to about 1.1 µM and inactive = higher.

Tests used:
Assay in all cases: DTP human tumour cell line panel, 48 h
[1] = test system: Malme-3M
[2] = test system: HCT-116
[3] = test system: DMS-114
[4] = test system: NCI-H226
[5] = test system: SR
[6] = test system: RPMI-8226
[7] = test system: HOP-92
[8] = test system: TK-10
[9] = test system: SF-295
[10] = test system: KM-20L2
[11] = test system: A549
[12] = test system: OVCAR-8
[13] = test system: UACC-257
[14] = test system: UACC-62
[15] = test system: SNB-78
[16] = test system: LXFL 529
[17] = test system: SF-539
[18] = test system: U-251
[19] = test system: DLD-1
[20] = test system: NCI-H460
[21] = test system: HOP-62
[22] = test system: M19-MEL
[23] = test system: MOLT-4
[24] = test system: UO-31
[25] = test system: K562
[26] = test system: M14
[27] = test system: NCI-H23
[28] = test system: XF498
[29] = test system: LOX IMVI
[30] = test system: SK-OV-3
[31] = test system: CCRF-CEM
[32] = test system: SW-620
[33] = test system: SF-268
[34] = test system: NCI-H522
[35] = test system: DMS-273
[36] = test system: SK-MEL-28
[37] = test system: ACHN
[38] = test system: 786-0
[39] = test system: IGROV-1
[40] = test system: OVCAR-3
[41] = test system: SN12C
[42] = test system: SNB-75
[43] = test system: SK-MEL-5
[44] = test system: CAKI-1
[45] = test system: SNB-19
[46] = test system: HCT-15
[47] = test system: HCC 2998
[48] = test system: OVCAR-5
[49] = test system: HL-60
[50] = test system: COLO 205
[51] = test system: KM12
[52] = test system: HT-29
[53] = test system: OVCAR-4
[54] = test system: RXF 393
[55] = test system: EKVX
[56] = test system: SK-MEL-2

## O=C(N/N=C(\C1=Nc2ccc(Cl)cc2NC1O)C(O)/C=C/c1ccccc1)c1ccncc1 (stereo unspecified)
[1]
  GI50: > 100 µM (inactive)
[2]
  GI50: > 100 µM (inactive)
[3]
  GI50: > 100 µM (inactive)
[4]
  GI50: > 100 µM (inactive)
[5]
  GI50: > 100 µM (inactive)
[6]
  GI50: > 100 µM (inactive)
[7]
  GI50: 54.5 µM (inactive)
[8]
  GI50: > 100 µM (inactive)
[9]
  GI50: > 100 µM (inactive)
[10]
  GI50: > 100 µM (inactive)
[11]
  GI50: > 100 µM (inactive)
[12]
  GI50: > 100 µM (inactive)
[13]
  GI50: > 100 µM (inactive)
[14]
  GI50: > 100 µM (inactive)
[15]
  GI50: > 100 µM (inactive)
[16]
  GI50: > 100 µM (inactive)
[17]
  GI50: > 100 µM (inactive)
[18]
  GI50: > 100 µM (inactive)
[19]
  GI50: > 100 µM (inactive)
[20]
  GI50: > 100 µM (inactive)
[21]
  GI50: > 100 µM (inactive)
[22]
  GI50: > 100 µM (inactive)
[23]
  GI50: > 100 µM (inactive)
[24]
  GI50: 30.8 µM (inactive)
[25]
  GI50: > 100 µM (inactive)
[26]
  GI50: > 100 µM (inactive)
[27]
  GI50: > 100 µM (inactive)
[28]
  GI50: > 100 µM (inactive)
[29]
  GI50: > 100 µM (inactive)
[30]
  GI50: > 100 µM (inactive)
[31]
  GI50: > 100 µM (inactive)
[32]
  GI50: > 100 µM (inactive)
[33]
  GI50: > 100 µM (inactive)
[34]
  GI50: > 100 µM (inactive)
[35]
  GI50: > 100 µM (inactive)
[36]
  GI50: > 100 µM (inactive)
[37]
  GI50: > 100 µM (inactive)
[38]
  GI50: > 100 µM (inactive)
[39]
  GI50: > 100 µM (inactive)
[40]
  GI50: > 100 µM (inactive)
[41]
  GI50: > 100 µM (inactive)
[42]
  GI50: > 100 µM (inactive)
[43]
  GI50: > 100 µM (inactive)
[44]
  GI50: > 100 µM (inactive)
[45]
  GI50: > 100 µM (inactive)
[46]
  GI50: > 100 µM
[47]
  GI50: > 100 µM (inactive)
[48]
  GI50: > 100 µM (inactive)
[49]
  GI50: > 100 µM (inactive)
[50]
  GI50: > 100 µM (inactive)
[51]
  GI50: > 100 µM (inactive)
[52]
  GI50: > 100 µM (inactive)
[53]
  GI50: > 100 µM (inactive)
[54]
  GI50: > 100 µM (inactive)

## CC1OC(OP(=O)(OCc2ccccc2)OCc2ccccc2)C(OC(=O)c2ccccc2)C(OC(=O)c2ccccc2)C1I (stereo unspecified)
[1]
  GI50: 39.4 µM (inactive)
[2]
  GI50: 28.1 µM (inactive)
[5]
  GI50: 17.5 µM (inactive)
[6]
  GI50: 19.6 µM (inactive)
[8]
  GI50: > 100 µM (inactive)
[9]
  GI50: 88.3 µM (inactive)
[10]
  GI50: 51.2 µM (inactive)
[11]
  GI50: 26.4 µM (inactive)
[12]
  GI50: 98.4 µM (inactive)
[13]
  GI50: 39.3 µM (inactive)
[14]
  GI50: 48.9 µM (inactive)
[16]
  GI50: 41.8 µM (inactive)
[18]
  GI50: 50.4 µM (inactive)
[19]
  GI50: 50 µM (inactive)
[20]
  GI50: 34 µM (inactive)
[21]
  GI50: > 100 µM (inactive)
[22]
  GI50: 61.5 µM (inactive)
[23]
  GI50: 17.3 µM (inactive)
[24]
  GI50: 27.4 µM (inactive)
[25]
  GI50: 29.3 µM (inactive)
[26]
  GI50: 37.6 µM (inactive)
[27]
  GI50: 30.3 µM (inactive)
[28]
  GI50: > 100 µM (inactive)
[29]
  GI50: 47.4 µM (inactive)
[30]
  GI50: > 100 µM (inactive)
[31]
  GI50: 24.5 µM (inactive)
[32]
  GI50: 72.8 µM (inactive)
[33]
  GI50: 52.2 µM (inactive)
[34]
  GI50: 21.4 µM (inactive)
[35]
  GI50: 53 µM (inactive)
[36]
  GI50: 86.7 µM (inactive)
[37]
  GI50: 32.6 µM (inactive)
[38]
  GI50: 50.9 µM (inactive)
[39]
  GI50: 76 µM (inactive)
[40]
  GI50: 46 µM (inactive)
[41]
  GI50: 20.9 µM (inactive)
[42]
  GI50: 9.31 µM (inactive)
[43]
  GI50: 27.3 µM (inactive)
[44]
  GI50: 29.6 µM (inactive)
[45]
  GI50: 43.8 µM (inactive)
[46]
  GI50: 45.9 µM
[47]
  GI50: 54.6 µM (inactive)
[48]
  GI50: 98.6 µM (inactive)
[49]
  GI50: 20.7 µM (inactive)
[55]
  GI50: 40.9 µM (inactive)
[50]
  GI50: 30.2 µM (inactive)
[56]
  GI50: 23.8 µM (inactive)
[51]
  GI50: 35 µM (inactive)
[52]
  GI50: 42.9 µM (inactive)
[53]
  GI50: 60.1 µM (inactive)
[54]
  GI50: 12.7 µM (inactive)

## C/C(=N\NC(=O)c1ccccc1O)c1cccc(/C(C)=N/NC(=O)c2ccccc2O)n1.[Cl-].[Cl-].[Zn+2]
[1]
  GI50: 10.8 µM (inactive)
[3]
  GI50: 2.97 µM (inactive)
[5]
  GI50: 1.44 µM (inactive)
[7]
  GI50: 10.6 µM (inactive)
[8]
  GI50: 10.2 µM (inactive)
[9]
  GI50: 9.98 µM (inactive)
[11]
  GI50: 10.8 µM (inactive)
[12]
  GI50: 2.18 µM (inactive)
[14]
  GI50: 2.11 µM (inactive)
[16]
  GI50: 1.34 µM (inactive)
[23]
  GI50: 1.59 µM (inactive)
[26]
  GI50: 7.96 µM (inactive)
[28]
  GI50: 21.2 µM (inactive)
[29]
  GI50: 1.37 µM (inactive)
[30]
  GI50: 6.15 µM (inactive)
[32]
  GI50: 5.85 µM (inactive)
[33]
  GI50: 2.11 µM (inactive)
[37]
  GI50: 2.17 µM (inactive)
[42]
  GI50: 17.9 µM (inactive)
[43]
  GI50: 10.4 µM (inactive)
[46]
  GI50: 7.35 µM
[47]
  GI50: 2.01 µM (inactive)
[55]
  GI50: 19.6 µM (inactive)
[56]
  GI50: 15.2 µM (inactive)
[51]
  GI50: 6.25 µM (inactive)
[54]
  GI50: 8.05 µM (inactive)
